Here are results for 2 compounds from EP0491061A1, “Use of enalapril and perindopril as prolactin-lowering medicament” (Weth, Gosbert Dr. med., Dr. rer. nat., priority 1990, dated 1992).

Each structure is given as a SMILES string. Entries after “also recorded” stand apart in the source; their conditions may differ.

One experiment has as its system Prolaktin. Nature of the experiment: Plasma prolactin determination by radioimmunoassay (method of Hwang et al.) in patients after dosing. To be noted: for Prolaktinsenkung: average weight 60 kg. The format is in vivo, Patienten.
In the next experiment the test system is Dopamin. Nature of the experiment: Plasma dopamine determination (method of Weth) in patients with circulatory disorders after dosing. The format is in vivo, Patienten. To be noted: for Dopamin MW: mean of 12 patients. The text has this: Die durch die erfindungsgemäß verwendeten N-(Aminoacyl)-aminosäuren erhöhte Freisetzung von Dopamin bei gleichzeitiger Senkung des Prolaktins konnte durch pharmakologische Tests veranschaulicht und bewiesen werden. Die Dopaminbestimmung wurde nach G. Weth, "Das Verhalten der Neurotransmitter....", Dissertation, Würzburg, 1987, S. 123-138, durchgeführt. Die Bestimmung von Prolaktin wurde radioimmunologisch nach den Methoden von P. Hwang, H. Guyda, H. Friesen, Proc. Nat. Sci. (USA) 1971,68-8, S.1902-06 durchgeführt.
Für die Untersuchungen wurden 2x12 Patienten (Alter 75±10 Jahre) herangezogen, die unter Durchblutungsstörungen, sowohl peripheren als auch zentralen, litten. Bei diesen Patienten wurden sowohl vor der Gabe von Enalaprilhydrogenmaleat, als auch 15, 30, 60, und 120 Minuten nach der Gabe von Enalaprilhydrogenmaleat Dopamin und Prolaktin bestimmt.
Die Patienten bekamen sublingual […] Enalaprilhydrogenmaleat verabreicht (RR zwischen 100/70 und 170/110; MW 130/90 mm Hg).
Die Bestimmung der Dopamin- und Prolaktinwerte wurde wie folgt vorgenommen. In Zeitabschnitten von 15, 30, 60 und 120 Minuten wurden dem Patienten je 5 ml Blut entnommen und in speziell präparierten Vakuum-Behältern, die Glutathion und EDTA enthielten gegeben. Das Blut wird sofort auf 2°C abgekühlt und bei 2°C zentrifugiert. Das überstehende Blutplasma wurde bis zur Dopamin- und Prolaktinbestimmung bei minus 80 °C tiefgefroren.
Die Dimensionsangaben betragen für Dopamin pg/ml bzw. ng/l und für Prolaktin ng/ml.

`CCOC(=O)[C@H](CCc1ccccc1)N[C@@H](C)C(=O)N1CCC[C@H]1C(=O)O` [Enalaprilhydrogenmaleat]: the “Prolaktin MW” value with Prolaktin (15 min after 20 mg Enalaprilhydrogenmaleat, plasma, mean of 12 patients) is reported as 15,4 ng/ml; in the experiment on Prolaktin (30 min after 20 mg Enalaprilhydrogenmaleat, plasma, mean of 12 patients), 14,3 ng/ml; with Prolaktin (60 min after 20 mg Enalaprilhydrogenmaleat, plasma, mean of 12 patients) it was 11,9 ng/ml; with Prolaktin (90 min after 20 mg Enalaprilhydrogenmaleat, plasma, mean of 12 patients), 10,8 ng/ml; in the experiment with Prolaktin (120 min after 20 mg Enalaprilhydrogenmaleat, plasma, mean of 12 patients) it was 10,2 ng/ml; in the experiment on Prolaktin (time 0 (before dosing), 20 mg Enalaprilhydrogenmaleat, plasma, mean of 12 patients), 16,2 ng/ml. Further, the “Senkung des Prolaktins” value in the experiment on Prolaktin (in words, 30 min after sublingual dosing) is given as “deutlichen Senkung”. Besides, the Prolaktinsenkung result with Prolaktin (in words, Fig. 2, 30 min after 20 mg oral) was “signifikante”; with Prolaktin (in words, Fig. 2, 60 min after 20 mg oral) it was “hochsignifikante Prolaktinsenkung”. Besides, the “Abfall von Prolaktin” value with Prolaktin (in words, after 25 mg (so in the source)) was “signifikanten Abfall”. The “Dopamin MW” value with Dopamin (15 min after 20 mg Enalaprilhydrogenmaleat, plasma) was determined as 143 pg/mL; in the experiment with Dopamin (30 min after 20 mg Enalaprilhydrogenmaleat, plasma), 188 pg/mL; in the experiment on Dopamin (60 min after 20 mg Enalaprilhydrogenmaleat, plasma), 253 pg/mL; in the experiment with Dopamin (90 min after 20 mg Enalaprilhydrogenmaleat, plasma), 230 pg/mL; with Dopamin (120 min after 20 mg Enalaprilhydrogenmaleat, plasma), 182 pg/mL; with Dopamin (time 0 (before dosing), 20 mg Enalaprilhydrogenmaleat, plasma) it was 105 pg/mL. Besides, the “Höhepunkt des Dopaminanstiegs (time)” value with Dopamin (Fig. 1, 20 mg sublingual, average weight 60 kg, plasma) stood at 60 min. In addition, the “Anstieg des Dopamins” value with Dopamin (in words, 15 min after sublingual dosing) is given as “hochsignifikanten Anstieg; also recorded: signifikanten Anstieg”.

`CCC[C@H](N[C@@H](C)C(=O)N1[C@H](C(=O)O)C[C@@H]2CCCC[C@@H]21)C(=O)OCC` [Perindopril]: the “Prolaktin MW” value in the experiment on Prolaktin (30 min after 20 mg Perindopril oral, mean of 12 patients (average weight 60 kg)) was 12,3 pg/ml. Further, the “Prolaktin im Blutplasma” value in the experiment with Prolaktin (Fig. 3, 30 min after 20 mg oral) was determined as 12 ng/mL; in the experiment on Prolaktin (Fig. 3, 90 min after 20 mg oral), 7 ng/mL. Besides, the “Anfangskonzentration Prolaktin” value with Prolaktin (Fig. 3, before 20 mg oral, blood plasma) is 15 ng/mL.
